Some test systems named below: 786-0 renal; A498 renal; DU-145 prostate; HCT-116 colon; HCT-15 colon; NCI/ADR-RES ovarian; OVCAR-4 ovarian; SK-MEL-28 melanoma; SW-620 colon; T-47D breast.
Holding throughout (test): NCI anticancer screen, dose series, 48 h

Values joined by “and” are separate entries in the source; they are usually repeats but may differ in a detail not shown here. Equal entries are not always repeated.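 Grown in 96-well plates, cells were treated for 48 hours with each compound at five concentrations. Insufficient inhibition: endpoint recorded as highest concentration tested. The concentration for 50% growth inhibition is given as GI50. TGI is the concentration that stops growth completely.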 Some results are limits rather than exact numbers.

Turning to `NCCC(N)C(=O)O` (stereo not given), the TGI with 786-0 renal, in the experiment on A498 renal, with DU-145 prostate, in the experiment on HCT-116 colon, in the experiment on HCT-15 colon and with NCI/ADR-RES ovarian was more than 100 µM each time. The TGI with OVCAR-4 ovarian, in the experiment with SK-MEL-28 melanoma, in the experiment on SW-620 colon and with T-47D breast was more than 100 µM in each case.
For `COc1cccc(N2C(=O)C3c4[nH]c5ccccc5c4C4c5ccccc5CCC4C3C2=O)c1` (stereo not given), the TGI with 786-0 renal is more than 8.35 µM; in the experiment with A498 renal it was 8.53 µM; in the experiment on DU-145 prostate it was more than 10 µM; with HCT-116 colon, more than 10 µM; in the experiment with HCT-15 colon it was more than 10 µM; in the experiment on NCI/ADR-RES ovarian it was more than 10 µM. The TGI was more than 7.12 µM in the experiment on OVCAR-4 ovarian, more than 10 µM in the experiment with SK-MEL-28 melanoma, more than 10 µM in the experiment with SW-620 colon and more than 10 µM in the experiment on T-47D breast.
In the case of `O=C(Nc1ccccc1)O/N=C(/CBr)c1ccccc1`, the TGI was 26.6 µM in the experiment on 786-0 renal; 64.1 µM in the experiment with A498 renal; 38.1 µM with DU-145 prostate; 20 µM in the experiment with HCT-116 colon; 22.2 µM in the experiment on HCT-15 colon; more than 100 µM in the experiment with NCI/ADR-RES ovarian. In addition, the TGI is 33.8 µM with OVCAR-4 ovarian, 43.2 µM in the experiment with SK-MEL-28 melanoma, more than 100 µM with SW-620 colon and 32.6 µM with T-47D breast.
Consider `Cc1cn(C2CC(n3cc(Cn4cc(F)c(=O)[nH]c4=O)nn3)C(CO)O2)c(=O)[nH]c1=O` (stereo not given), for which the TGI in the experiment with 786-0 renal, in the experiment with A498 renal, in the experiment with DU-145 prostate, in the experiment on HCT-116 colon, with HCT-15 colon and with NCI/ADR-RES ovarian was more than 100 µM throughout. For the same molecule, the TGI in the experiment with OVCAR-4 ovarian, in the experiment on SK-MEL-28 melanoma, in the experiment on SW-620 colon and in the experiment on T-47D breast was more than 100 µM in each case.
As to `S=C1c2ccccc2NC(=NC2CCCC2)C2CSCN12` (stereo not given), the TGI in the experiment with 786-0 renal, in the experiment with A498 renal, in the experiment with DU-145 prostate, in the experiment on HCT-116 colon, in the experiment with HCT-15 colon and in the experiment on NCI/ADR-RES ovarian was more than 100 µM throughout. The TGI in the experiment with OVCAR-4 ovarian, in the experiment on SK-MEL-28 melanoma, with SW-620 colon and in the experiment on T-47D breast was more than 100 µM each time.
`CSc1c(C(=O)Nc2ccccc2)c(N)nn1-c1ccccc1`: the TGI in the experiment on 786-0 renal, in the experiment with A498 renal, in the experiment on DU-145 prostate, in the experiment on HCT-116 colon, with HCT-15 colon and in the experiment on NCI/ADR-RES ovarian was more than 100 µM throughout. Besides, the TGI in the experiment on OVCAR-4 ovarian, in the experiment on SK-MEL-28 melanoma, with SW-620 colon and in the experiment with T-47D breast was more than 100 µM each time.
For the molecule `CCOC(C[Se]CC(OCC)OCC)OCC`, the TGI in the experiment with 786-0 renal is more than 100 µM; in the experiment with A498 renal it was more than 100 µM; with DU-145 prostate, 85.7 µM; in the experiment with HCT-116 colon it was more than 100 µM; in the experiment with HCT-15 colon, more than 100 µM; with NCI/ADR-RES ovarian, more than 100 µM. In addition, the TGI in the experiment on OVCAR-4 ovarian, with SK-MEL-28 melanoma, with SW-620 colon and in the experiment on T-47D breast was more than 100 µM throughout.
In the case of `CC(C)(CO)CNc1cc(=O)[nH]c(N)n1`, the TGI in the experiment with 786-0 renal, in the experiment with A498 renal, in the experiment with DU-145 prostate, with HCT-116 colon, in the experiment on HCT-15 colon and in the experiment with NCI/ADR-RES ovarian was more than 100 µM in each case. For the same molecule, the TGI with OVCAR-4 ovarian, with SK-MEL-28 melanoma, with SW-620 colon and with T-47D breast was more than 100 µM in each case.
For `COC(=O)c1cc(C)ccc1CC(Cc1cccc(C)c1)C(=O)OC` (stereo not given), the TGI in the experiment with 786-0 renal, in the experiment on A498 renal, with DU-145 prostate, in the experiment on HCT-116 colon, with HCT-15 colon and with NCI/ADR-RES ovarian was more than 100 µM throughout. Also, the TGI with OVCAR-4 ovarian, in the experiment on SK-MEL-28 melanoma, in the experiment with SW-620 colon and with T-47D breast was more than 100 µM in each case.
For `CC(C)C[C@H](NC(=O)[C@H](Cc1cccc2ccccc12)NC(=O)N1CCOCC1)B(O)O`, the TGI was 0.199 µM and 1.09 µM in the experiment with 786-0 renal; 0.0288 µM and < 0.0143 µM with A498 renal; 0.116 µM and < 0.0249 µM in the experiment with DU-145 prostate; 0.00182 µM with HCT-116 colon; 0.303 µM and 1.76 µM with HCT-15 colon; more than 100 µM with OVCAR-4 ovarian. In addition, the TGI in the experiment on SK-MEL-28 melanoma was 0.00096 µM and < 0.0329 µM; in the experiment with SW-620 colon it was 0.00286 µM and 0.0115 µM; in the experiment with T-47D breast it was 0.00275 µM. Also, the GI50 in the experiment on A498 renal was 0.871 nM; with HCT-116 colon, 0.452 nM; in the experiment with HCT-15 colon, 36.3 nM; with NCI/ADR-RES ovarian it was 267 nM; with SK-MEL-28 melanoma it was 0.205 nM; in the experiment with T-47D breast it was 0.817 nM.
In the case of `Cc1ccc(S(=O)(=O)N/C(=C\C=C\c2ccccc2)C(=O)C(C)(C)C)cc1`, the TGI with 786-0 renal was 73.6 µM; with A498 renal, more than 100 µM; in the experiment with DU-145 prostate it was more than 100 µM; with HCT-116 colon, more than 100 µM; in the experiment on HCT-15 colon, more than 100 µM; in the experiment on NCI/ADR-RES ovarian, more than 100 µM. In addition, the TGI in the experiment with OVCAR-4 ovarian, with SK-MEL-28 melanoma, in the experiment on SW-620 colon and with T-47D breast was more than 100 µM each time.
`O=[N+]([O-])c1cccc(-c2csc(N=Nc3c(O)[nH]c4ccccc34)n2)c1`: the TGI stood at 29.8 µM in the experiment with 786-0 renal; 80.1 µM in the experiment on A498 renal; 65.9 µM with DU-145 prostate; 33.2 µM with HCT-116 colon; 54.4 µM in the experiment with HCT-15 colon; 29.6 µM in the experiment on NCI/ADR-RES ovarian. Further, the TGI in the experiment on OVCAR-4 ovarian is 61.7 µM; in the experiment with SK-MEL-28 melanoma it was 36.1 µM; in the experiment on SW-620 colon, more than 100 µM; in the experiment on T-47D breast, 82.4 µM.
With `CCN1CC(C)Cn2c(=O)[nH]c3cc(Br)cc1c32` (stereo not given), the TGI was more than 100 µM in the experiment with 786-0 renal; 80.3 µM in the experiment with A498 renal; more than 100 µM with DU-145 prostate; more than 100 µM in the experiment on HCT-116 colon; more than 100 µM with HCT-15 colon; more than 100 µM in the experiment on NCI/ADR-RES ovarian. For the same molecule, the TGI in the experiment on OVCAR-4 ovarian, in the experiment with SK-MEL-28 melanoma, in the experiment on SW-620 colon and in the experiment on T-47D breast was more than 100 µM each time.

For the origin of these results see PubChem BioAssay (NCI).
